Test results: the NIST ThermoML archive (doi:10.1016/j.tca.2005.08.007)

Experiment: xn = mol fraction of the nth substance listed
Settings: 298.15 K, 101 kPa, Liquid; for viscosity: Capillary tube (Ostwald / Ubbelohde) method; for mass density: Vibrating tube method

C1CCCCC1 [cyclohexane] + Cc1ccccc1
Settings | mass density [kg/m3] | viscosity [mPa·s]
x2 = 0.0721 | 777.43 | 0.8574
x2 = 0.1813 | 784.63 | 0.7693
x2 = 0.2798 | 791.6 | 0.7024
x2 = 0.3613 | 799.02 | 0.651
x2 = 0.4416 | 806 | 0.6116
x2 = 0.6003 | 820.17 | 0.5532
x2 = 0.6784 | 827.33 | 0.5329
x2 = 0.7615 | 834.61 | 0.5181
x2 = 0.8396 | 843.41 | 0.5029
x2 = 0.9202 | 853.16 | 0.4976

C1CCCCC1 [cyclohexane] + CCCCCC
Settings | mass density [kg/m3] | viscosity [mPa·s]
x1 = 0.0397 | 655.8 | 0.2833
x1 = 0.2011 | 674.91 | 0.3282
x1 = 0.2776 | 683.97 | 0.3485
x1 = 0.3617 | 693.92 | 0.3778
x1 = 0.4409 | 703.31 | 0.4077
x1 = 0.5889 | 720.83 | 0.4815
x1 = 0.6848 | 732.18 | 0.5355
x1 = 0.7608 | 741.18 | 0.5994
x1 = 0.8074 | 746.7 | 0.6444
x1 = 0.9205 | 760.09 | 0.7507

CCCCCC [hexane] + Cc1ccccc1
Settings | mass density [kg/m3] | viscosity [mPa·s]
x2 = 0.0406 | 657.47 | 0.2774
x2 = 0.2028 | 690.93 | 0.3073
x2 = 0.2804 | 706.95 | 0.3185
x2 = 0.3596 | 723.29 | 0.3272
x2 = 0.4423 | 740.35 | 0.3421
x2 = 0.5997 | 772.81 | 0.3812
x2 = 0.6757 | 788.5 | 0.4028
x2 = 0.7597 | 805.83 | 0.43
x2 = 0.8412 | 822.63 | 0.4644
x2 = 0.9199 | 838.87 | 0.499
